Source: patent US20230407243A1, “GENETIC PLATFORM TO INVESTIGATE THE FUNCTIONS OF BACTERIAL DRUG EFFLUX PUMPS” (priority 2022, published 2023)
Where two headings read alike, the source gives them in different places.

Columns and labels:
Assay type in all cases: cell-based, Escherichia coli
EKO-35 araC::mdtBC = assay: MIC susceptibility profiling, efflux platform
Method in brief: (§1)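 Growth inhibition was scored by OD600, with readings taken before incubation subtracted from those after. Cells were grown in MHB II at 37 °C for 18 h with aeration, against duplicate 2-fold compound series and DMSO-only wells. Inoculum: PBS suspension at OD600 ~1.0 diluted 1/2000.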

EKO-35 araC::acrD = assay: MIC susceptibility profiling, efflux platform
Method in brief: as §1

[1] = tested on: EKO-35 araC::mexCD (MexCD from P. aeruginosa); assay: MIC susceptibility profiling, efflux platform
Method in brief: as §1

EKO-35 araC::acrBD408A = assay: MIC susceptibility profiling, efflux platform
Method in brief: as §1

EKO-35 araC::mdtEF = assay: MIC susceptibility profiling, efflux platform
Method in brief: as §1

EKO-35 araC::emrKY = assay: MIC susceptibility profiling, efflux platform
Method in brief: as §1

EKO-35 araC::emrAB = assay: MIC susceptibility profiling, efflux platform
Method in brief: as §1

EKO-35 araC::macAB = assay: MIC susceptibility profiling, efflux platform
Method in brief: as §1

EKO-35 araC::acrB = assay: MIC susceptibility profiling, efflux platform
Method in brief: as §1

EKO-35 araC::acrEF = assay: MIC susceptibility profiling, efflux platform
Method in brief: as §1

E. coli ΔtolC = assay: microbe, parasite or virus in culture; conditions: for Minimum inhibitory concentration (MIC), ΔtolC: Table 10, without pore
Method in brief: as §1

E. coli EKO-35 = assay: microbe, parasite or virus in culture; conditions: for MIC: Escherichia coli, EKO35
Method in brief: as §1

[2] = tested on: wild-type E. coli K-12 str. BW25113; assay: microbe, parasite or virus in culture; conditions: technical duplicate; for MIC: Escherichia coli, BW25113
Method in brief: as §1

ΔtolC-Pore = assay: microbe, parasite or virus in culture; conditions: for Minimum inhibitory concentration (MIC), Pore ΔtolC: Table 10, with pore
Method in brief: (§2)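 E. coli strains carrying a genomically integrated constitutive fhuA ΔC/Δ4L pore were grown 18 h in LB at 37 °C, then diluted 1/2000 in MHB II from OD600 ~1.0. Compounds were tested in duplicate, 2-fold serial titration, for 18 h at 37 °C with shaking. MIC came from OD600 with the pre-incubation background subtracted.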

wild-type (WT) K-12-Pore = assay: microbe, parasite or virus in culture; conditions: technical duplicate; for MIC: Escherichia coli
Method in brief: as §2

EKO-35 araC::mdtEF Pore = assay: MIC susceptibility profiling, porinated efflux platform
Method in brief: as §2

EKO-35 araC::emrKY Pore = assay: as above
Method in brief: as §2

EKO-35 araC::macAB Pore = assay: as above
Method in brief: as §2

EKO-35 araC::acrEF Pore = assay: as above
Method in brief: as §2

[3] = Table 13B, non-porinated, technical duplicate
[4] = Table 13A, non-porinated, technical duplicate
[5] = Table 14A, porinated, technical duplicate

Work on `CC[C@H]1OC(=O)[C@H](C)[C@@H](O[C@H]2C[C@@](C)(OC)[C@@H](O)[C@H](C)O2)[C@H](C)[C@@H](O[C@@H]2O[C@H](C)C[C@H](N(C)C)[C@H]2O)[C@](C)(O)C[C@@H](C)C(=O)[C@H](C)[C@@H](O)[C@]1(C)O` [erythromycin] yielded an MIC (EKO-35 araC::mdtBC; Escherichia coli, Table 13B, non-porinated, technical duplicate, read-out: Minimum Inhibitory Concentration, EKO-35 araC::mdtBC) of 3.12 µg/mL, an MIC (EKO-35 araC::acrD; Escherichia coli, Table 13A, non-porinated, technical duplicate, read-out: Minimum Inhibitory Concentration, EKO-35 araC::acrD) of 3.12 µg/mL and an MIC ([1]; Table 13B, non-porinated, technical duplicate, read-out: Minimum Inhibitory Concentration, EKO-35 araC::mexCD) of 25 µg/mL. For the same compound, the MIC (EKO-35 araC::acrBD408A; Escherichia coli, Table 13B, non-porinated, technical duplicate, read-out: Minimum Inhibitory Concentration, EKO-35 araC::acrBD408A) was 3.12 µg/mL, the MIC (EKO-35 araC::mdtEF; Escherichia coli, Table 13A, non-porinated, technical duplicate, read-out: Minimum Inhibitory Concentration, EKO-35 araC::mdtEF) was 50 µg/mL and the MIC (EKO-35 araC::emrKY; Escherichia coli, Table 13B, non-porinated, technical duplicate, read-out: Minimum Inhibitory Concentration, EKO-35 araC::emrKY) was 3.12 µg/mL. For the same compound, the MIC (EKO-35 araC::emrAB; Escherichia coli, Table 13B, non-porinated, technical duplicate, read-out: Minimum Inhibitory Concentration, EKO-35 araC::emrAB) was 3.12 µg/mL, the MIC (EKO-35 araC::macAB; Escherichia coli, Table 13B, non-porinated, technical duplicate, read-out: Minimum Inhibitory Concentration, EKO-35 araC::macAB) was 12.5 µg/mL and the “efflux pump-mediated resistance vs EKO-35” value (EKO-35 araC::macAB; MacAB) was “specific”. The MIC (EKO-35 araC::acrB; Escherichia coli, Table 13A, non-porinated, technical duplicate, read-out: Minimum Inhibitory Concentration, EKO-35 araC::acrB) was 100 µg/mL, the MIC (EKO-35 araC::acrEF; Escherichia coli, Table 13A, non-porinated, technical duplicate, read-out: Minimum Inhibitory Concentration, EKO-35 araC::acrEF) was 50 µg/mL and the MIC (E. coli ΔtolC; Escherichia coli, 18 h, read-out: Minimum Inhibitory Concentration, ΔtolC) was 3.12 µg/mL. The “Minimum inhibitory concentration (MIC), ΔtolC” value (E. coli ΔtolC; technical duplicate) was 3.125 µg/mL, the MIC (E. coli EKO-35; Table 10, without pore, technical duplicate, read-out: Minimum inhibitory concentration (MIC), EKO-35) was 3.12 µg/mL and the MIC (E. coli EKO-35; Table 13A, non-porinated, technical duplicate, read-out: Minimum Inhibitory Concentration, EKO-35) was 3.12 µg/mL. It also gave an MIC ([2]; Table 10, without pore, read-out: Minimum inhibitory concentration (MIC), K-12) of 100 µg/mL, an MIC ([2]; Table 13A, non-porinated, read-out: Minimum Inhibitory Concentration, K-12) of 100 µg/mL and an MIC (ΔtolC-Pore; Escherichia coli, 18 h, read-out: Minimum inhibitory concentration, ΔtolC-Pore) of 0.195 µg/mL. For the same compound, the “Minimum inhibitory concentration (MIC), Pore ΔtolC” value (ΔtolC-Pore; technical duplicate) was 0.195 µg/mL, the MIC (wild-type (WT) K-12-Pore; Table 10, with pore, read-out: Minimum inhibitory concentration (MIC), Pore K-12) was 6.25 µg/mL and the MIC (wild-type (WT) K-12-Pore; Table 14A, porinated, read-out: Minimum inhibitory concentration, K-12 (WT)-Pore) was 6.25 µg/mL. It also gave an MIC (EKO-35 araC::mdtEF Pore; Escherichia coli, Table 14A, porinated, technical duplicate, read-out: Minimum inhibitory concentration, EKO-35 araC::mdtEF Pore) of 1.56 µg/mL, an MIC (EKO-35 araC::emrKY Pore; Escherichia coli, EKO-35 araC::emrKY Pore, technical duplicate, read-out: Minimum inhibitory concentration) of 0.195 µg/mL and an MIC (EKO-35 araC::macAB Pore; Escherichia coli, EKO-35 araC::macAB Pore, technical duplicate, read-out: Minimum inhibitory concentration) of 0.781 µg/mL. It also gave an MIC (EKO-35 araC::acrEF Pore; Escherichia coli, Table 14A, porinated, technical duplicate, read-out: Minimum inhibitory concentration, EKO-35 araC::acrEF Pore) of 1.56 µg/mL.
`N#CC(=NNc1ccc(F)c(Cl)c1)C(=O)c1ccc(Cl)cc1` [compound 15] was tested, and the “Fold change of MICs” value (EKO-35 araC::mdtBC; EKO-35 araC::mdtBC compared to EKO-35) was 1 fold, the “Minimum Inhibitory Concentration, EKO-35 araC::mdtBC” value (EKO-35 araC::mdtBC; [3]) was 320 µg/mL and the “Fold change of MICs” value (EKO-35 araC::acrD; EKO-35 araC::acrD compared to EKO-35) was 1 fold. For the same compound, the “Minimum Inhibitory Concentration, EKO-35 araC::acrD” value (EKO-35 araC::acrD; [4]) was 320 µg/mL, the “Fold change of MICs” value ([1]; EKO-35 araC::mexCD compared to EKO-35) was 1 fold and the “Minimum Inhibitory Concentration, EKO-35 araC::mexCD” value [1, 3] was 320 µg/mL. For the same compound, the “Fold change of MICs” value (EKO-35 araC::acrBD408A; EKO-35 araC::acrBD408A compared to EKO-35) was 1 fold, the “Minimum Inhibitory Concentration, EKO-35 araC::acrBD408A” value (EKO-35 araC::acrBD408A; [3]) was 320 µg/mL and the “Fold change of MICs” value (EKO-35 araC::mdtEF; EKO-35 araC::mdtEF compared to EKO-35) was 1 fold. The “Minimum Inhibitory Concentration, EKO-35 araC::mdtEF” value (EKO-35 araC::mdtEF; [4]) was 320 µg/mL, the “Fold change of MICs” value (EKO-35 araC::emrKY; EKO-35 araC::emrKY compared to EKO-35) was 1 fold and the “Minimum Inhibitory Concentration, EKO-35 araC::emrKY” value (EKO-35 araC::emrKY; [3]) was 320 µg/mL. For the same compound, the “Fold change of MICs” value (EKO-35 araC::emrAB; EKO-35 araC::emrAB compared to EKO-35) was 1 fold, the “Minimum Inhibitory Concentration, EKO-35 araC::emrAB” value (EKO-35 araC::emrAB; [3]) was 320 µg/mL and the “Fold change of MICs” value (EKO-35 araC::macAB; EKO-35 araC::macAB compared to EKO-35) was 1 fold. The “Minimum Inhibitory Concentration, EKO-35 araC::macAB” value (EKO-35 araC::macAB; [3]) was 320 µg/mL, the “Fold change of MICs” value (EKO-35 araC::acrB; EKO-35 araC::acrB compared to EKO-35) was 1 fold and the “Minimum Inhibitory Concentration, EKO-35 araC::acrB” value (EKO-35 araC::acrB; [4]) was 320 µg/mL. For the same compound, the “Fold change of MICs” value (EKO-35 araC::acrEF; EKO-35 araC::acrEF compared to EKO-35) was 1 fold, the “Minimum Inhibitory Concentration, EKO-35 araC::acrEF” value (EKO-35 araC::acrEF; [4]) was 320 µg/mL and the “Minimum inhibitory concentration (MIC), ΔtolC” value (E. coli ΔtolC; technical duplicate) was 1.25 µg/mL. The “Minimum Inhibitory Concentration, ΔtolC” value (E. coli ΔtolC; [4]) was 1.25 µg/mL, the “Fold change of MICs” value (E. coli EKO-35; EKO-35 compared to EKO-35 (reference)) was 1 fold and the “Minimum inhibitory concentration (MIC), EKO-35” value (E. coli EKO-35; Table 10, without pore, technical duplicate) was 320 µg/mL. For the same compound, the “Minimum Inhibitory Concentration, EKO-35” value (E. coli EKO-35; [4]) was 320 µg/mL, the “Minimum inhibitory concentration (MIC), K-12” value ([2]; Table 10, without pore) was 320 µg/mL and the “Minimum Inhibitory Concentration, K-12” value ([2]; Table 13A, non-porinated) was 320 µg/mL. For the same compound, the “Minimum inhibitory concentration (MIC), Pore ΔtolC” value (ΔtolC-Pore; technical duplicate) was 0.625 µg/mL, the “Minimum inhibitory concentration, ΔtolC-Pore” value (ΔtolC-Pore; [5]) was 0.625 µg/mL and the “Minimum inhibitory concentration (MIC), Pore K-12” value (wild-type (WT) K-12-Pore; Table 10, with pore) was 320 µg/mL. For the same compound, the “Minimum inhibitory concentration, K-12 (WT)-Pore” value (wild-type (WT) K-12-Pore; Table 14A, porinated) was 320 µg/mL, the “Fold changes of MICs” value (EKO-35 araC::mdtEF Pore; EKO-35 araC::mdtEF Pore compared to EKO-35-Pore) was 1 fold and the “Minimum inhibitory concentration, EKO-35 araC::mdtEF Pore” value (EKO-35 araC::mdtEF Pore; [5]) was 320 µg/mL. The “Fold changes of MICs” value (EKO-35 araC::emrKY Pore; EKO-35 araC::emrKY Pore compared to EKO-35-Pore) was 1 fold, the Minimum inhibitory concentration (EKO-35 araC::emrKY Pore; EKO-35 araC::emrKY Pore, technical duplicate) was 320 µg/mL and the “Fold changes of MICs” value (EKO-35 araC::macAB Pore; EKO-35 araC::macAB Pore compared to EKO-35-Pore) was 1 fold. For the same compound, the Minimum inhibitory concentration (EKO-35 araC::macAB Pore; EKO-35 araC::macAB Pore, technical duplicate) was 320 µg/mL, the “Fold changes of MICs” value (EKO-35 araC::acrEF Pore; EKO-35 araC::acrEF Pore compared to EKO-35-Pore) was 1 fold and the “Minimum inhibitory concentration, EKO-35 araC::acrEF Pore” value (EKO-35 araC::acrEF Pore; [5]) was 320 µg/mL.
